One experiment deals with T1, ETB receptors (Homo sapiens, UniProt P24530).
T1 construct: host or cells: man (in vivo)
T1 sequence (P24530 27-442): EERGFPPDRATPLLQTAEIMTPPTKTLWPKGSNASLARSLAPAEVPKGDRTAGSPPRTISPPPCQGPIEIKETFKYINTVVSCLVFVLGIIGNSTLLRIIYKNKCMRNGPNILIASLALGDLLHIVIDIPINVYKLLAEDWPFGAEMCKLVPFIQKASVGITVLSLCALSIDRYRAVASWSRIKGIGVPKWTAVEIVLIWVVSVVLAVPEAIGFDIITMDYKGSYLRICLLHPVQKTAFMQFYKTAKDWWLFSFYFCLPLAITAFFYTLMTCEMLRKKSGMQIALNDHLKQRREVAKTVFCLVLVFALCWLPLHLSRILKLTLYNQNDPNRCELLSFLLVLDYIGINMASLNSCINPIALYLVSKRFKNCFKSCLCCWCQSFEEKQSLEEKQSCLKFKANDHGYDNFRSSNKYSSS
The conditions noted are these: in man; Hypertension, 1999, 33, 581-585; cited from earlier work.

A further experiment concerns ETA/B receptor. The conditions noted are these: hypertensive patients; H. Krum et al., 1998; cited from earlier work.
In another experiment the target is T2, dog ETA receptor (Canis lupus familiaris, UniProt Q5KSU9).
T2 construct: 100 μg of purified dog kidney homogenate is added; from tissue; host or cells: dog kidney homogenate
T2 sequence (Q5KSU9 21-426): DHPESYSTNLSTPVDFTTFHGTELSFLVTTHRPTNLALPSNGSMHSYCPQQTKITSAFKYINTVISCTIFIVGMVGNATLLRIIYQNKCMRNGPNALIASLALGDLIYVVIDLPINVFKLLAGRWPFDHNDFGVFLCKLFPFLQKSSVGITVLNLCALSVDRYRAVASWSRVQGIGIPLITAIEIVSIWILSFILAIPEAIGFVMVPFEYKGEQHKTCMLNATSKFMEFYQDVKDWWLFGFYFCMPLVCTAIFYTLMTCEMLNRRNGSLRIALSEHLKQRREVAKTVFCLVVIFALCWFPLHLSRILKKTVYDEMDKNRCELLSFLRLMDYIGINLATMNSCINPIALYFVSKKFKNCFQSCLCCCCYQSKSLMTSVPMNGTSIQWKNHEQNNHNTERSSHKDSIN
Kind of experiment: Dog ETA Binding Assay (125I-PD-151242, dog kidney homogenate). How it is done: Competition between test substances and ligands binding to canine endothelin receptors is determined as follows: […] The solution is incubated at room temperature for 2 hours. After the incubation, the unbound ligand is separated from receptor bound ligand by filtration with a Brandel cell harvester, followed by 5 washes with buffer (Tris 50 mM, MgCl2 10 mM). Filter papers are counted for radioactivity and the Ki (an IC50 corrected for the dissociation constant and concentration of the ligand added) is determined for the concentration range tested.

The next experiment deals with T3, dog ETB (Canis lupus familiaris, UniProt P56497).
T3 construct: 50 μg of purified Dog cerebellum homogenate is added; from tissue; host or cells: dog cerebellum homogenate
T3 sequence (P56497 27-442): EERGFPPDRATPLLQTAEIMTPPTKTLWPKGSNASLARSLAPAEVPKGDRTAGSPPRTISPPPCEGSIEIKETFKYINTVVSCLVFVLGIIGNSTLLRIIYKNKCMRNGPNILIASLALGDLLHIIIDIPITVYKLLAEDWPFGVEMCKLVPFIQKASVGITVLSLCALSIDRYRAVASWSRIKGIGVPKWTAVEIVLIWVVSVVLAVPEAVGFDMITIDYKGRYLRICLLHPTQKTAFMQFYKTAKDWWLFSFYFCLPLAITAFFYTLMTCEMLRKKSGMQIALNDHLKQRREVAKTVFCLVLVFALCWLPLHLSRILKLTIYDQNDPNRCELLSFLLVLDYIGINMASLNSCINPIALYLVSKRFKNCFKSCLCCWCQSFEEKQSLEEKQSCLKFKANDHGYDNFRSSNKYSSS
Kind of experiment: Dog ETB Binding Assay (125I-IRL-1620, dog cerebellum homogenate). How it is done: Competition between test substances and ligands binding to canine endothelin receptors is determined as follows: […] The solution is incubated at 30° C. for 90 minutes. After the incubation, the unbound ligand is separated from receptor bound ligand by filtration with a Brandel cell harvester, followed by 5 washes with buffer (Tris 50 mM, MgCl2 10 mM). Filter papers are counted for radioactivity and the Ki (an IC50 corrected for the dissociation constant and concentration of the ligand added) is determined for the concentration range tested.

Another experiment concerns neointimal formation. The conditions noted are these: S. Douglas et al., Circ. Res., 1994; cited from earlier work.

SMILES strings stand for the structures.

Consider `CCCC[C@@H](NC(=O)[C@@H](Cc1cn(C(=O)OC)c2ccccc12)NC(=O)[C@H](CC(C)(C)C)NC(=O)N1[C@H](C)CCC[C@@H]1C)C(=O)O` [BQ-788], for which the peripheral resistance result at ETB receptors is on record as “increase peripheral resistance”.
As to `COc1ccccc1Oc1c(NS(=O)(=O)c2ccc(C(C)(C)C)cc2)nc(-c2ncccn2)nc1OCCO` [Bosentan], the blood pressure entry in the experiment with ETA/B receptor was “decreased blood pressure”.
A word on the Ki: it is the dissociation constant of the complex between target and ligand, obtained from inhibition or displacement. A higher Ki goes with weaker binding. On to `COc1ccccc1Oc1c(NS(=O)(=O)CCc2ccccc2)nc(-c2cccnn2)nc1OC` [Example 5], for which the inhibition constant (Ki) at dog ETA receptor turned out to be 0.002 µM; on dog ETB it was 0.132 µM.
Turning to `CCCOc1ccc2c(c1)[C@@H](c1ccc(OC)cc1OCC(=O)O)[C@H](C(=O)O)[C@H]2c1ccc2c(c1)OCO2` [SB-209670], the “reduction in neointimal formation relative to control animals” value with neointimal formation was 50%.
